Like-named read-outs stand apart in the source and are kept apart here.
Tests used:
[1] = In vitro dissolution, paddle method, pH 5.8 phosphate buffer; format: physicochemical
Experimental: Dissolution studies were performed according to the USP XXI method 2 (paddle method) at 37 ± 0.5 °C at 50 rpm. 900 ml of dissolution medium were used as standard volume. Dissolution samples (1 mL) were withdrawn at the specified times of 15, 30, 45, 60, 90, 120 min from Dissolution cups, and 1 ml of dissolution medium was replenished in the same time. Samples were filtered through a 0.45 μm nylon disc filter and were measured absorbance at 230 nm by HPLC [11].

[2] = Pharmacokinetic study in rats (plasma LC-MS/MS) after iv or oral VOC, oral VOC-P188 or oral VOC-β-CD; format: in vivo, Sprague Dawley rats; conditions: for AUC(0-t) / MRT last / Tmax / half-life / Cmax / bioavailability: male, Sprague-Dawley, rat, plasma; for MRT last: read-out: MRT0-t; for half-life: read-out: t1/2β (converted)
Experimental: The intravenous injection solution was prepared by dissolving 0.15 g of VOC in 25 ml water containing 3 ml 10% Tween-80 as solubilizer. The oral solution was prepared by dissolving 0.35 g of VOC in 25 ml normal saline containing 3 ml 10% Tween-80 as solubilizer. The VOC-P188 solution was prepared by mixing VOC-P188 5 g in 25 ml water with magnetic stirring apparatus. The VOC-β-CD solution was prepared by mixing VOC-β-CD 3.5 g in 25 ml water with magnetic stirring apparatus.
Twenty-four male SD rats (220 ~ 250 g) were randomly divided into four groups, 6 in each group. After fasting for 12 h before administration, the rats in group 1 were given VOC by tail vein injection at a dose of 30 mg/Kg, the rats at second group were oral administration of VOC solution, the dosage was 120 mg/Kg based on the mass of VOC. The rats at groups 3 and 4 were given VOC-P188 and VOC-β-CD, respectively.
Blood samples (0.3 ml) were collected from the eyes at 0.08, 0.17, 0.33, 0.5, 1, 1.5, 2, 4, 6, 8, 12 and 24 h after administration, and they were immediately transferred into a heparinized Eppendorf (EP) tube. The blood samples were then centrifuged at 13,000 r/min for 10 min. The plasma samples were stored at − 80 °C for later analysis.
The thawed plasma sample (0.1 ml) was transferred to another EP tube and 20 μl of DL, 50 μl of 2% formic acid and 500 μl of methanol were added. The mixture was vortexed for 2 min, and centrifuged at 13000 r/min for 10 min. The supernatant was transferred into a clean EP tube, and evaporated to dryness under a stream of nitrogen at 40 °C. The residue was dissolved in 100 μl of methanol. The supernatant was injected into the HPLC system.
An HPLC system consisting of a solvent-delivery system LC-30 AD, an autosampler SIL-30 AC, a column oven CTO-30 AC, a solvent degasser DGU-20A3, and a controller CBM-20A from […] was used in the study. Separation was conducted using a Shim-pack GIST C18-AQ HP column (2.1 mm × 100 mm, 3 μm). The column oven was maintained at 35 °C. The mobile phase was 0.1% formic acid in water as mobile phase A and acetonitrile as mobile phase B. The linear gradient elution program was set according to preliminary tests: 45–60% B, 0–2 min; 60–65% B, 2–6 min; 65–95% B, 6–7 min; 95–45% B, 7–9 min and 45% B, 9–10 min, with the flow rate kept at 0.3 ml/min. The injection volume was set at 2 μl.
The MS analysis was performed on a 4500 QTRAP™ system from Applied Biosystems (AB Sciex) equipped with Turbo V sources and Turbo Ion Spray™ (TIS) interface. Electrospray ionization was performed in positive mode. Ion source: electrospray ion source (ESI source); detection method: multiple reaction monitoring (MRM); ion source temperature: 500 °C; desolvent gas temperature: 550 °C; desolvent gas flow rate: 800 l/h. The detection ion pair, retention time, declustering voltage and collision energy of each index component and internal standard were shown in Table 2.
The plasma SA, NBP, NOL, ZL and BP concentrations were evaluated using the equation from the standard curves that were run with each batch of samples. The plasma concentration-time data were analyzed with the Drug and Statistics 2.0 software package to determine the pharmacokinetic parameters. The observed Cmax value was obtained from the observed data and the observed AUC0 → t value was calculated using the trapezoidal rule. The absolute bioavailability of VOC and the relative bioavailability of VOC-P188 and VOC-β-CD were calculated, the formula for calculating absolute bioavailability (F1) and relative bioavailability (F2): F1=AUCpo×Div/AUCiv×Dpo×100% […]
Where AUC is the area under the temporal curve of blood drug concentration (μg/l*h), D is administration dosage (mg/kg); the subscripts iv and po are injection and oral administration, respectively; the subscript R is reference drug (VOC); the subscript T is solid dispersion or inclusion compound.

[3] = Stability test of VOC-P188 and VOC-β-CD (temperature, illumination); format: physicochemical
[4] = parameters: method as in PMID 18039808; conditions: cited from earlier work
[5] = VOC iv 30 mg/kg, rat plasma, n = 6
[6] = VOC po 120 mg/kg, rat plasma, n = 6
[7] = VOC-P188 solid dispersion po vs VOC po, rats
[8] = VOC-P188 solid dispersion po, rat plasma, n = 6
[9] = VOC-β-CD inclusion compound po vs VOC po, rats
[10] = VOC-β-CD inclusion compound po, rat plasma, n = 6
[11] = iv, 30 mg/kg, VOC iv 30 mg/kg, rat plasma, n = 6
[12] = iv, 30 mg/kg, VOC iv 30 mg/kg, rat plasma, n = 6, read-out: Tmax
[13] = iv, 30 mg/kg, VOC iv (tail vein) 30 mg/kg, rat plasma, n = 6
[14] = po, 120 mg/kg, VOC po 120 mg/kg, rat plasma, n = 6
[15] = po, 120 mg/kg, VOC po 120 mg/kg, rat plasma, n = 6, read-out: Tmax
[16] = po, 120 mg/kg, after oral administration of VOC, rats, read-out: Tmax (time of peak concentration)
[17] = po, VOC-P188 and VOC-β-CD po, rats, read-out: bioavailability in the two preparations
[18] = po, VOC-P188 solid dispersion po, rat plasma, n = 6
[19] = po, VOC-P188 solid dispersion po, rat plasma, n = 6, read-out: Tmax
[20] = po, VOC-β-CD inclusion compound po, rat plasma, n = 6
[21] = po, VOC-β-CD inclusion compound po, rat plasma, n = 6, read-out: Tmax
[22] = po, 120 mg/kg, VOC po vs VOC iv, rats, read-out: F1 (absolute bioavailability)

Compound	t1/2α [2, 5] [h]	t1/2α [2, 6] [h]	F2 (relative bioavailability) [2, 7] [%]	t1/2α [2, 8]	F2 (relative bioavailability) [2, 9] [%]	t1/2α [2, 10]	AUC(0-t) [2, 11] [ng·h/mL]	MRT last [2, 11] [min]	Tmax [2, 12] [min]	half-life [2, 11] [min]	Cmax [2, 13] [ng/mL]	AUC(0-t) [2, 14] [ng·h/mL]	Cmax [2, 14] [ng/mL]	MRT last [2, 14] [min]	Tmax [2, 15] [min]	half-life [2, 14] [min]	bioavailability [2, 17] [%]	AUC(0-t) [2, 18] [ng·h/mL]	Cmax [2, 18] [ng/mL]	MRT last [2, 18] [min]	further results
CCC/C=C1\OC(=O)c2ccccc21 [BP]	0.04 ± 0.04	1.38 ± 1.02	251.50	2.72 ± 3.66 h	363.55	7.02 ± 5.42^* h	198 ± 42.8	76.8 ± 19.2	4.98	42 ± 32.4	373 ± 155	99.1 ± 23.3	43.7 ± 10.9	208 ± 64.8	30 ± 16.8	224 ± 196	< 50	249 ± 24.5	40.3 ± 8.37	445 ± 36	solubility in pH 5.8 PBS [1]: poor solubility; Tmax [2, 16]: < 30 min; Tmax [2, 19]: 25.2 ± 19.8 min; half-life [2, 18]: 518 ± 146 min; AUC(0-t) [2, 20]: 298 ± 31.7 ng·h/mL; Cmax [2, 20]: 38.8 ± 16 ng/mL; MRT last [2, 20]: 507 ± 46.2 min; Tmax [2, 21]: 21 ± 11.4 min; half-life [2, 20]: 1170 ± 338 min
CCCC[C@@H]1OC(=O)c2ccccc21 [NBP, N-butylphthalide, reference compound]	0.06 ± 0.04	0.26 ± 0.10	197.67	2.82 ± 1.55^** h	198.39	3.95 ± 1.96^** h	54.6 ± 16.5	32.4 ± 13.2	4.98	15.6 ± 9	196 ± 64.5	36.1 ± 7.58	25.9 ± 8.3	162 ± 28.2	28.2 ± 4.2	39 ± 44.4	< 50	72.7 ± 9.8	23.5 ± 1.59	244 ± 27.6	bioavailability [2, 22]: < 25%; Tmax [2, 16]: < 30 min; Tmax [2, 19]: 19.2 ± 12 min; half-life [2, 18]: 188 ± 60.6 min; AUC(0-t) [2, 20]: 76.1 ± 24.6 ng·h/mL; Cmax [2, 20]: 22.4 ± 5.56 ng/mL; MRT last [2, 20]: 317 ± 62.4 min; Tmax [2, 21]: 49.8 ± 15.6 min; half-life [2, 20]: 263 ± 109 min
CCCC[C@@H]1OC(=O)C2=CCCC[C@H]21 [NOL, Neocnidilide]	0.04 ± 0.04	0.46 ± 0.67	258.18	4.21 ± 4.29^* h	218.01	3.21 ± 2.44 h	505 ± 152	47.4 ± 10.2	4.98	18 ± 6.6	1380 ± 335	442 ± 45.2	223 ± 71.3	205 ± 34.2	10.8 ± 7.2	186 ± 131	< 50	1140 ± 63.9	244 ± 131	457 ± 34.2	bioavailability [2, 22]: < 25%; Tmax [2, 19]: 25.2 ± 27 min; half-life [2, 18]: 530 ± 110 min; AUC(0-t) [2, 20]: 945 ± 85 ng·h/mL; Cmax [2, 20]: 134 ± 24.3 ng/mL; MRT last [2, 20]: 490 ± 33 min; Tmax [2, 21]: 40.2 ± 15.6 min; half-life [2, 20]: 586 ± 163 min
CCCCC1OC(=O)C2=C1CCC=C2 (stereo not drawn) [SA, senkyunolide A]	0.09 ± 0.05	1.31 ± 1.58	185.82	1.50 ± 1.59 h	138.69	2.34 ± 1.24 h	1370 ± 315	43.2 ± 4.8	4.98	46.8 ± 39.6	3430 ± 557	1260 ± 274	631 ± 310	251 ± 29.4	11.4 ± 6	227 ± 84	< 50	2360 ± 351	701 ± 349	387 ± 57.6	content decreased by ([3]; in VOC-P188, 60 °C for 10 days): 15.8%; content decreased by ([3]; in VOC-β-CD, 60 °C for 10 days): 9.0%; bioavailability [2, 22]: < 25%; Tmax [2, 19]: 12 ± 9.6 min; half-life [2, 18]: 434 ± 154 min; AUC(0-t) [2, 20]: 1830 ± 532 ng·h/mL; Cmax [2, 20]: 399 ± 68.3 ng/mL; MRT last [2, 20]: 373 ± 90.6 min; Tmax [2, 21]: 30 ± 15.6 min; half-life [2, 20]: 179 ± 34.2 min
CCC/C=C1\OC(=O)C2=C1CCC=C2 [ZL, Z-ligustilide]	0.04 ± 0.04	0.82 ± 0.51	163.35	4.40 ± 4.10^* h	224.54	4.72 ± 1.92^* h	1240 ± 435	27 ± 6	4.98	33 ± 39.6	4530 ± 1450	504 ± 53.3	214 ± 76	236 ± 32.4	13.2 ± 5.4	329 ± 157	< 50	801 ± 199	320 ± 286	357 ± 29.4	content decreased by ([3]; in VOC-P188, 60 °C for 10 days): 38.9%; content decreased by ([3]; in VOC-β-CD, 60 °C for 10 days): 20.3%; solubility in pH 5.8 PBS [1]: poor solubility; Oral bioavailability [4]: 2.6%; Tmax [2, 19]: 29.4 ± 25.2 min; half-life [2, 18]: 535 ± 315 min; AUC(0-t) [2, 20]: 883 ± 211 ng·h/mL; Cmax [2, 20]: 145 ± 24.8 ng/mL; MRT last [2, 20]: 439 ± 19.8 min; Tmax [2, 21]: 24 ± 10.2 min; half-life [2, 20]: 358 ± 174 min

Reference: PMC8063472, “Pharmacokinetics of five phthalides in volatile oil of Ligusticum sinense Oliv.cv. Chaxiong, and comparison study on physicochemistry and pharmacokinetics after being formulated into solid dispersion and inclusion compound” (BMC Complementary Medicine and Therapies, 2021)
